Patent publication US8815857B2 (Boehringer Ingelheim International GmbH, priority 2011, dated 2014)
Values after ≈ are worked out from the molar mass of the structure shown.

Assays:
[1] = target: T1, human soluble guanylate cyclase alpha 1 and beta 1 subunits (sGC) stably expressed in Chinese hamster ovary cells (Homo sapiens, UniProt Q02108+Q02153); test: sGC cellular activator assay: cGMP in CHO cells expressing human sGC, preincubated with ODQ; format: cell-based; conditions: 40 microM ODQ preincubation, 30 min at room temperature, presence or absence of 50% human serum not given, read-out: EC50 nM, Activity of Compounds in Cellular Assay
T1 construct: expressed in transfected cells; host or cells: Chinese hamster ovary cells, stably transfected
T1 sequence (Q02108 1-690 partner): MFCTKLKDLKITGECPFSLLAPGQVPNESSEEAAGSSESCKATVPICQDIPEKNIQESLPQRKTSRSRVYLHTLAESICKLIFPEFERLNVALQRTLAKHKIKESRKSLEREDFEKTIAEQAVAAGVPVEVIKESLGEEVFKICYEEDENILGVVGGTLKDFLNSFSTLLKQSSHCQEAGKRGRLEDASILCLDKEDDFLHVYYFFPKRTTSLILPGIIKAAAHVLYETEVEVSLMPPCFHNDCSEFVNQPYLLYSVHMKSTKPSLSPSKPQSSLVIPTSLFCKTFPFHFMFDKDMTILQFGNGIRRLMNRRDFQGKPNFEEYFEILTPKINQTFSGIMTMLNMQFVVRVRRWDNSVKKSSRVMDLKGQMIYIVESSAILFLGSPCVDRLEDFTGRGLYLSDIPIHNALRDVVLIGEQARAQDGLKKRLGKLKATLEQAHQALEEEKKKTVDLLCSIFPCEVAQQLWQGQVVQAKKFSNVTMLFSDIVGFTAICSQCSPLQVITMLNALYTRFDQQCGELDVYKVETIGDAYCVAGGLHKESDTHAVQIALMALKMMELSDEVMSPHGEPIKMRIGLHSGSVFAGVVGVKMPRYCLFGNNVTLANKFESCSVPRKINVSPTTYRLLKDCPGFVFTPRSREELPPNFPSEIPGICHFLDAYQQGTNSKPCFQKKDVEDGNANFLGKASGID
T1 sequence (Q02153 1-619): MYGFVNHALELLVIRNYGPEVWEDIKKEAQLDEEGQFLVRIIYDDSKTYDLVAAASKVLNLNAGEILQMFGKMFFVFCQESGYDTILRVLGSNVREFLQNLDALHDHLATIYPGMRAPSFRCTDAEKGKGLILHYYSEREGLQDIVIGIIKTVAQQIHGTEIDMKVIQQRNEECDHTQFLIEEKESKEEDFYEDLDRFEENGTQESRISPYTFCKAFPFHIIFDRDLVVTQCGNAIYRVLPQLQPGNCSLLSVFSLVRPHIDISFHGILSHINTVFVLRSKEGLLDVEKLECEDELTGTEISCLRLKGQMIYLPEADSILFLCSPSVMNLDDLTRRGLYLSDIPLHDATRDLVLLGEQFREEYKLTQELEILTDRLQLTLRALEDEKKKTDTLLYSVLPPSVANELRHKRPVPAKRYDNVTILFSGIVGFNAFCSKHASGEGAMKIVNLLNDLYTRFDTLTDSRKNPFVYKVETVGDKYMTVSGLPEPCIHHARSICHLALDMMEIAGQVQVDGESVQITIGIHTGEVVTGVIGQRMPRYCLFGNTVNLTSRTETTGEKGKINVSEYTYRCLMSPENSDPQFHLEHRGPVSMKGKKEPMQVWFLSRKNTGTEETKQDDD
Description: The sGC cellular activator assay is performed in the presence and absence of 50% human serum (HS) using Chinese hamster ovary cells that have been stably transfected to express the human soluble guanylate cyclase alpha 1 and beta 1 subunits (sGC). Cells are preincubated with 40 microM 1H-[1,2,4]oxadiazolo[4,3-a]quinoxalin-1-one (ODQ), an sGC inhibitor, for one hour in buffer containing 0.1% bovine serum albumin and 3-isobutyl-1-methylxanthine (IBMX). Concentration response curves are prepared for test compounds in DMSO. An intermediate dilution of the compounds is performed in either buffer containing IBMX or type AB HS containing IBMX. Diluted compounds are added to cells and they are incubated at room temperature for thirty minutes. cGMP is measured using a CisBio homogeneous time resolved fluorescence kit and the EC50 is calculated for each compound.

[2] = Assessment of solubility: HT solubility in pION buffer, UV spectrophotometry; conditions: for solubility: kinetic from dmso stock
[3] = pH 6.8, aqueous buffer, Solubility (pH 6.8), pH 6.8
[4] = pION system solution buffer, pH 4.5, pH 4.5, aqueous buffer, Solubility (pH 4.5), pH 4.5 buffer, 16-19 h incubation, 1.0% DMSO
[5] = pION system solution buffer, pH 7.4, pH 7.4, aqueous buffer, Solubility (pH 7.4), pH 7.4 buffer, 16-19 h incubation, 1.0% DMSO

| Compound | EC50 [1] [nM] | solubility [2, 3] [µg/mL] | solubility [2, 4] [µg/mL] | Solubility (pH 4.5) ([2]; pH 4.5 buffer, 16-19 h incubation, 1.0% DMSO) [μg/mL] | solubility [2, 5] [µg/mL] |
| --- | --- | --- | --- | --- | --- |
| Cc1ccc(OCc2ccc(C(=O)N3CCCCC3)cc2C)c(-c2csc(N3CCCC(C)(C(=O)O)CC3)n2)c1 (stereo not shown) [Compound 229] | 76 | 21 (≈ 37.4 µM) | 0.4 (≈ 0.712 µM) |  |  |
| Cc1ccc(OCc2ccc(CN3CCS(=O)(=O)CC3)cc2C)c(-c2csc(N3CCCC(C)(C(=O)O)CC3)n2)c1 (stereo not shown) [Compound 230] | 120 | 0.95 (≈ 1.59 µM) | < 0.1 |  |  |
| Cc1ccc(OCc2ccc(C(=O)N3CCCCC3)cc2C)c(-c2csc(N3CC4(CC4C(=O)O)C3)n2)c1 (stereo not shown) [Compound 248] | 110 | 47 (≈ 88.4 µM) | < 0.1 |  |  |
| CCOC1CCN(C(=O)c2ccc(COc3ccc(C)cc3-c3csc(N4C[C@H]5CC[C@@H](C4)[C@H]5C(=O)O)n3)c(C)c2)C1 (stereo partly shown) [Compound 332] | 30 | 35 (≈ 59.3 µM) | 0.14 (≈ 0.237 µM) |  |  |
| Cc1ccc(OCc2ccc(CN3CCS(=O)(=O)CC3)cc2C)c(-c2csc(N3CC(C4(C(=O)O)CC4)C3)n2)c1 [Compound 259] | 580 | 19 (≈ 32.7 µM) | < 0.1 |  |  |
| Cc1ccc(OCc2ccc(CN3CCOCC3)cc2C)c(-c2csc(N3CC[C@@H](C(=O)O)[C@H]3C)n2)c1 [Compound 242] | 90 | 37 (≈ 70.9 µM) | 53 (≈ 102 µM) |  |  |
| CCCC1(C(=O)O)C2CCC1CN(c1nc(-c3cc(C)ccc3OCc3ccc(C(=O)N4CCCCC4)cc3C)cs1)C2 (stereo not shown) [Compound 262] | 980 | 12 (≈ 19.9 µM) | < 0.1 |  |  |
| Cc1ccc(OCc2ccc(CN3CCS(=O)(=O)CC3)cc2C)c(-c2csc(N3CC[C@@]4(C(=O)O)C[C@H]4C3)n2)c1 [Compound 223] | 5.2 | 2.5 (≈ 4.3 µM) | < 0.1 |  |  |
| COCCN(C)C(=O)c1ccc(COc2ccc(C)cc2-c2csc(N3C[C@H]4CC[C@@H](C3)[C@H]4C(=O)O)n2)c(C)c1 [Compound 344] | 23 | 61 (≈ 108 µM) |  | 0.1 | > 58 |
| COc1cc(CN2CCOCC2)ccc1COc1ccc(C)cc1-c1csc(N2CCC(C(=O)O)CC2)n1 [Compound 278] | 51 |  | > 53 |  | 30 (≈ 55.8 µM) |
| Cc1ccc(OCc2ccc(C(=O)N3CCC[C@@H](O)C3)cc2C)c(-c2csc(N3C[C@H]4CC[C@@H](C3)[C@H]4C(=O)O)n2)c1 [Compound 312] | 35 | 13 (≈ 22.6 µM) | 0.26 (≈ 0.452 µM) |  |  |
| Cc1ccc(OCc2ccc(CN3CCOC(C)(C)C3)cc2C#N)c(-c2csc(N3C[C@H]4CC[C@@H](C3)[C@H]4C(=O)O)n2)c1 [Compound 358] | 30 | 8.1 (≈ 13.8 µM) | 0.14 (≈ 0.239 µM) |  |  |
| Cc1ccc(OCc2ccc(C(=O)N3CCCCC3)c(C)c2)c(-c2csc(N3C[C@H]4CC[C@@H](C3)[C@H]4C(=O)O)n2)c1 [Compound 283] | 60 | 0.1 (≈ 0.179 µM) | < 0.1 |  |  |
| Cc1ccc(OCc2ccc(CN3CCOC(CO)C3)cc2C#N)c(-c2csc(N3C[C@H]4CC[C@@H](C3)[C@H]4C(=O)O)n2)c1 (stereo partly shown) [Compound 227] | 99 | 62 (≈ 105 µM) | 54 (≈ 91.7 µM) |  |  |
| Cc1ccc(OCc2c(C)cc(C(=O)N3CCOCC3)cc2C)c(-c2csc(N3C[C@H]4CC[C@@H](C3)[C@H]4C(=O)O)n2)c1 [Compound 285] | 120 | 54 (≈ 93.8 µM) | < 0.1 |  |  |
